Each structure is given as a SMILES string.

This assay concerns the target T1, human Npt2a (Homo sapiens, UniProt Q06495).
T1 construct: expressed in transfected cells
T1 sequence (Q06495 1-639): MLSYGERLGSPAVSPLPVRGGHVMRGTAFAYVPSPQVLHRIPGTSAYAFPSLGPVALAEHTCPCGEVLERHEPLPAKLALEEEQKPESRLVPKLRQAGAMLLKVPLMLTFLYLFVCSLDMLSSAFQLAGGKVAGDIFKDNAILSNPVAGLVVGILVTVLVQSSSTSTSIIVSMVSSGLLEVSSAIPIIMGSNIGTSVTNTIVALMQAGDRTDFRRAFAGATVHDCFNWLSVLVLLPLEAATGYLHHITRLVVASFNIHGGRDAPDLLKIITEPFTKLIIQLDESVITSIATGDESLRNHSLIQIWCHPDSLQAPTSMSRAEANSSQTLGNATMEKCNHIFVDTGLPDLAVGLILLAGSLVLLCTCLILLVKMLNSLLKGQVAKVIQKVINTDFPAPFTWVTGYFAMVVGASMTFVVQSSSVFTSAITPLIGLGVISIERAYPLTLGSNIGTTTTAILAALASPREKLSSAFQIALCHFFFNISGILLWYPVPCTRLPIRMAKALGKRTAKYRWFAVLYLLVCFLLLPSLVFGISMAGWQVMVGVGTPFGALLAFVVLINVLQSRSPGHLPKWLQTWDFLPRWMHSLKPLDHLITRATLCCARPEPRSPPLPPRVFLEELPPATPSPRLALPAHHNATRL
The assay can be described thus: Npt2a activity cell based assay, membrane potential dye, CHO T-REx hNpt2a cells. Conditions: doxycycline-induced, depolarization by sodium phosphate influx, average or median values if tested more than once. Summed up:
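Doxycycline-induced (0.5 μg/mL, 24 h) CHO T-REx cells were loaded with membrane potential dye in sodium-free NHE buffer (pH 7.4) and exposed to compound (50 μM–1 nM, 5 min, room temperature).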
For the molecule `CCOC(=O)c1c(C)nn(-c2cc(Nc3c(C)c(-c4ccc(F)cn4)nn3CCOC)ncn2)c1C` [Example 545, ethyl 1-(6-{[3-(5-fluoropyridin-2-yl)-1-(2-methoxyethyl)-4-methyl-1H-pyrazol-5-yl]amino}pyrimidin-4-yl)-3,5-dimethyl-1H-pyrazole-4-carboxylate], inhibition was half-maximal at 14 nM (IC50).
Consider `CCOC(=O)c1c(C)nn(-c2cc(Nc3c(C)c(-c4ccc(C(F)F)cc4)nn3CCOC)ncn2)c1C` [Example 546, ethyl 1-[6-({3-[4-(difluoromethyl)phenyl]-1-(2-methoxyethyl)-4-methyl-1H-pyrazol-5-yl}amino)pyrimidin-4-yl]-3,5-dimethyl-1H-pyrazole-4-carboxylate], for which the IC50 stood at 14 nM.
Take `Cc1nn(-c2cc(Nc3c(C)c(-c4ccc(C#N)cc4)nn3C)ncn2)c(C)c1C(F)(F)F` [Example 547, 4-[5-({6-[3,5-dimethyl-4-(trifluoromethyl)-1H-pyrazol-1-yl]pyrimidin-4-yl}amino)-1,4-dimethyl-1H-pyrazol-3-yl]benzonitrile]: 29 nM corresponded to half-maximal inhibition (IC50).
Molecule `Cc1cc(C(F)F)n(-c2cc(Nc3c(C)c(-c4ccc(C(F)(F)F)nc4)nn3C)ncn2)n1` [Example 548, 6-[5-(difluoromethyl)-3-methyl-1H-pyrazol-1-yl]-N-{1,4-dimethyl-3-[6-(trifluoromethyl)pyridin-3-yl]-1H-pyrazol-5-yl}pyrimidin-4-amine] returned an IC50 of 790 nM.
On to `Cc1cc(C)n(-c2cc(Nc3c(C)c(-c4ccc(C(F)(F)F)nc4)nn3C)ncn2)n1` [Example 549, 6-(3,5-dimethyl-H-pyrazol-1-yl)-N-{1,4-dimethyl-3-[6-(trifluoromethyl)pyridin-3-yl]-1H-pyrazol-5-yl}pyrimidin-4-amine], for which the half-maximal inhibitory concentration (IC50) was determined as 2600 nM.
On to `Cc1nn(-c2cc(Nc3c(C)c(-c4ccc(C(F)(F)F)nc4)nn3C)ncn2)c(C)c1Cl` [Example 550, 6-(4-chloro-3,5-dimethyl-1H-pyrazol-1-yl)-N-{1,4-dimethyl-3-[6-(trifluoromethyl)pyridin-3-yl]-1H-pyrazol-5-yl}pyrimidin-4-amine], for which the IC50 was determined as 500 nM.
With `COc1c(C)nn(-c2cc(Nc3c(C)c(-c4ccc(C(F)(F)F)nc4)nn3C)ncn2)c1C` [Example 551, N-{1,4-dimethyl-3-[6-(trifluoromethyl)pyridin-3-yl]-1H-pyrazol-5-yl}-6-(4-methoxy-3,5-dimethyl-1H-pyrazol-1-yl)pyrimidin-4-amine], inhibition was half-maximal at 1900 nM (IC50).
Consider `Cc1cc(C(F)F)n(-c2cc(Nc3nn(C)c(-c4ccc(C(F)(F)F)nc4)c3C)ncn2)n1` [Example 552, 6-[5-(difluoromethyl)-3-methyl-1H-pyrazol-1-yl]-N-{1,4-dimethyl-5-[6-(trifluoromethyl)pyridin-3-yl]-1H-pyrazol-3-yl}pyrimidin-4-amine], for which the midpoint of inhibition, the IC50, lay at 15 nM.
`Cc1nn(-c2cc(Nc3nn(C)c(-c4ccc(C(F)(F)F)nc4)c3C)ncn2)c(C)c1Cl` [Example 553, 6-(4-chloro-3,5-dimethyl-1H-pyrazol-1-yl)-N-{1,4-dimethyl-5-[6-(trifluoromethyl)pyridin-3-yl]-1H-pyrazol-3-yl}pyrimidin-4-amine] showed an IC50 of 7.2 nM.
The molecule `COCCn1nc(-c2ccc(C#N)cc2)c(C)c1Nc1cc(-n2nc(C)cc2C(F)F)ncn1` [Example 554, 4-[5-({6-[5-(difluoromethyl)-3-methyl-1H-pyrazol-1-yl]pyrimidin-4-yl}amino)-1-(2-methoxyethyl)-4-methyl-1H-pyrazol-3-yl]benzonitrile] gave a concentration for half-maximal inhibition (IC50) of 1.9 nM.
In the case of `COCCn1nc(-c2ccc(C#N)cc2)c(C)c1Nc1cc(-n2nc(C)cc2C)ncn1` [Example 555, 4-[5-{[6-(3,5-dimethyl-1H-pyrazol-1-yl)pyrimidin-4-yl]amino}-1-(2-methoxyethyl)-4-methyl-1H-pyrazol-3-yl]benzonitrile], the midpoint of inhibition, the IC50, lay at 1.6 nM.
Regarding `COC(=O)Nc1c(C)nn(-c2cc(Nc3c(C)c(-c4ccc(F)cc4)nn3CC3CC3)ncn2)c1C` [Example 556, methyl [1-(6-{[1-(cyclopropylmethyl)-3-(4-fluorophenyl)-4-methyl-1H-pyrazol-5-yl]amino}pyrimidin-4-yl)-3,5-dimethyl-1H-pyrazol-4-yl]carbamate], it took 810 nM to reach half-maximal inhibition (IC50).
Next, `COCCn1nc(-c2ccc(F)cn2)c(C)c1Nc1cc(-n2nc(C)c(C(=O)N(C)C)c2C)ncn1` [Example 557, 1-(6-{[3-(5-fluoropyridin-2-yl)-1-(2-methoxyethyl)-4-methyl-1H-pyrazol-5-yl]amino}pyrimidin-4-yl)-N,N,3,5-tetramethyl-1H-pyrazole-4-carboxamide]: 1000 nM; `COCCn1nc(-c2ccc(C(F)F)cc2)c(C)c1Nc1cc(-n2nc(C)c(C(=O)N(C)C)c2C)ncn1` [Example 558, 1-[6-({3-[4-(difluoromethyl)phenyl]-1-(2-methoxyethyl)-4-methyl-1H-pyrazol-5-yl}amino)pyrimidin-4-yl]-N,N,3,5-tetramethyl-1H-pyrazole-4-carboxamide]: 80 nM.
`Cc1cc(C)n(-c2cc(Nc3nn(C)c(-c4ccc(C(F)(F)F)nc4)c3C)ncn2)n1` [Example 559, 6-(3,5-dimethyl-1H-pyrazol-1-yl)-N-{1,4-dimethyl-5-[6-(trifluoromethyl)pyridin-3-yl]-1H-pyrazol-3-yl}pyrimidin-4-amine] gave an IC50 of 110 nM.

What is called IC50 is the midpoint of a concentration-inhibition curve. Higher therefore signals weaker potency.
